Literature values as cited in US20230039551A1, “BUFFER- AND CHELATOR-FREE, STABLE OPHTHALMOLOGICAL COMPOSITIONS OF KETOROLAC AND PHENYLEPHRINE AND APPLICATIONS THEREOF” (Somerset Therapeutics, LLC, priority 2021, published 2023).
Structures can show the parent of a compound that is named as a salt.

SMILES	pKa value
CNC[C@H](O)c1cccc(O)c1 [Phenylephrine HCl, 3-(1R)-1-hydroxy-2-(methylamino)ethyl]phenol; hydrochloride]	about 9.07
O=C(c1ccccc1)c1ccc2n1CCC2C(=O)O (centres unmarked) [Ketorolac tromethamine, 2-amino-2-(hydroxymethyl)propane-1,3-diol; 5-benzoyl-2,3-dihydro-1H-pyrrolizine-1-carboxylic acid]	about 3.5
